# Values of other authors in patent publication US20030203047A1 (priority 2002, published 2003).
# Read-outs that look alike come from different tables or passages of the source.
# Key:
# [1] = system: young female rats; conditions: constant infusion
# [2] = system: healthy young men; conditions: 300 mg/wk for six weeks
# [3] = system: hypogonadal men; conditions: for waking erection: Asian group of hypogonadal men; for sexual interest and activity, spontaneous erection: Caucasian group of hypogonadal men
# [4] = system: prostate and seminal vesicle weights; levator ani muscles
# [5] = in vivo
# [6] = system: patients on dialysis; conditions: compared with placebo
# [7] = system: androgen receptor; conditions: seminal vesicle; relative to the unreduced steroid
# [8] = supplementation
# [9] = target: T1, aromatase (Homo sapiens, UniProt P11511); conditions: compared with chrysin, AG and ANG
# T1 sequence (P11511 1-503): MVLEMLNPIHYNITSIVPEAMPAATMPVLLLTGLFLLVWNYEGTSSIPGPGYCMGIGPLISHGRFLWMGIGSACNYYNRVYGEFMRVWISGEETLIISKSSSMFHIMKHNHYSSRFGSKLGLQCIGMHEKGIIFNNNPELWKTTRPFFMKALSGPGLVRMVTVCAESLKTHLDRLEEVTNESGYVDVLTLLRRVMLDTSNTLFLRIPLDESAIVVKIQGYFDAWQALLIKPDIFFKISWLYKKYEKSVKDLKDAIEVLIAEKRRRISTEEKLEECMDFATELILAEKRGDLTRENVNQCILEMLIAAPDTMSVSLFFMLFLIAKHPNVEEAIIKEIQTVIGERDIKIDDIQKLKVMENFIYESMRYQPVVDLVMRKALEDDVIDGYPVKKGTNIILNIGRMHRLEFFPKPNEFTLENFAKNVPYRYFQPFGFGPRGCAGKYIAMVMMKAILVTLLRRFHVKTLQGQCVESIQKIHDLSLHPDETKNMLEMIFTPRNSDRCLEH
# [10] = system: HIV-infected men; conditions: pharmacological doses
# [11] = supplementation; remark: listed apart in the source
# [12] = for plasma testosterone: panhypopituitarism
structure (smiles),measurement,setting,value
C[C@]12CC[C@H]3[C@@H](CCC4=CC(=O)CC[C@@]43C)[C@@H]1CC[C@@H]2O [Testosterone],proportion of protein in the body composition,[1],increased
"CCCCCCC(=O)O[C@H]1CC[C@H]2[C@@H]3CCC4=CC(=O)CC[C@]4(C)[C@H]3CC[C@]12C [TE, testosterone enanthate]",circumferences with significant increases (of fifteen),[2],shoulders
same,waking erection,[3],increased
same,"sexual interest and activity, spontaneous erection",[3],significant increases
"C[C@@H]1CC2=CC(=O)CC[C@@H]2[C@H]2CC[C@]3(C)[C@@H](O)CC[C@H]3[C@@H]21 [MENT, 7α-methyl-19-nor-testosterone]",androgenic potency relative to testosterone,[4]; measured by prostate and seminal vesicle weights,four- to five-times
same,anabolic potency relative to testosterone,[4]; measured in the levator ani muscles,ten-times
same,waking erection,[3],increased
same,"sexual interest and activity, spontaneous erection",[3],significant increases
"C[C@]12CC[C@H]3[C@@H](CCC4=CC(=O)CC[C@@H]43)[C@@H]1CC[C@@H]2O [nandrolone, 19-nor-testosterone]",energy expenditure,[1],increased
same,adverse finding associated with use,[5],azoospermia
same,decrease in HDL-cholesterol,[5],25-27%
same,lean body mass,[6],increased significantly
"C[C@]12CCC(=O)C[C@@H]1CC[C@@H]1[C@@H]2CC[C@]2(C)[C@@H](O)CC[C@@H]12 [DHT, 5α-androstan-17β-ol-3-one]",change of affinity to the androgen receptor on 5-alpha-reduction,[7],increasing by seven- to eight-fold
C[C@]12CCC(=O)C=C1CC[C@@H]1[C@@H]2CC[C@]2(C)C(=O)CC[C@@H]12 [4-androstenedione],serum testosterone,[8],elevations
"COc1ccc(-c2coc3cc(O)cc(O)c3c2=O)cc1 [Biochanin A, 5,7-dihydroxy-4′-methoxyisoflavone]",aromatase inhibition (in words),[9],to a lesser degree
CCCCCCCCCC(=O)O[C@H]1CC[C@H]2[C@@H]3CCC4=CC(=O)CC[C@@H]4[C@H]3CC[C@]12C [nandrolone decanoate],"total weight, lean body mass, body cell mass, muscle size and strength",[10],significant gains
same,circumferences with significant increases (of fifteen),[2],shoulders and chest
C[C@]12CC[C@H]3[C@@H](CCC4=C[C@@H](O)CC[C@@]43C)[C@@H]1CC[C@@H]2O [4-androstenediol],urine testosterone concentration relative to 4-androstenedione,[11],10 fold
same,serum testosterone,[8],elevations
C[C@]12CC[C@H]3[C@@H](CC=C4C[C@@H](O)CC[C@@]43C)[C@@H]1CC[C@@H]2O [5-androstenediol],proportion of protein in the body composition,[1],increased
"C[C@]12CC[C@H](O)CC1=CC[C@@H]1[C@@H]2CC[C@]2(C)C(=O)CC[C@@H]12 [DHEA, dehydro-epiandrosterone]",plasma testosterone,[12]; 50 mg dose,levels similar to those observed in young women
same,increase of plasma delta 4-androstenedione,[12]; 50 mg or 200 mg,significant and dose dependent
same,"plasma estrogens, particularly estradiol",[12]; 50 mg or 200 mg,significant and dose dependent increase
same,plasma testosterone,[12]; 200 mg dose,slightly below the levels observed in normal men
same,increase of plasma dihydrotestosterone levels,[12]; both doses,small
